Target: T1, Recombinant human TPH1 (MBP tagged) (Homo sapiens, UniProt P17752)
T1 construct: cloning full length human TPH1 cDNA in to a bacterial pMAL-c5E expression vector; made in house; host or cells: E. coli BL21 (DE3)
T1 sequence (P17752 1-444): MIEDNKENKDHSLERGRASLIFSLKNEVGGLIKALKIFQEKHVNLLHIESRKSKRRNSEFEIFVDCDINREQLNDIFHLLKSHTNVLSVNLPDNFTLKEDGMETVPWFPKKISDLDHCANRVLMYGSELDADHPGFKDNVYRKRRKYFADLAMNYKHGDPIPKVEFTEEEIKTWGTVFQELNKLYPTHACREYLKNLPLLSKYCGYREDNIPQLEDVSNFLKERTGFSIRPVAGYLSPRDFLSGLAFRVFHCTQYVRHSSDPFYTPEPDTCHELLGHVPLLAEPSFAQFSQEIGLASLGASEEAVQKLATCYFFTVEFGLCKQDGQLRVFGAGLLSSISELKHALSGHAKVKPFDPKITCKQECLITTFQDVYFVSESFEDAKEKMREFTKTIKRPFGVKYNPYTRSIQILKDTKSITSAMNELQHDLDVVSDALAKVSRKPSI
Experiment: TPH1 in vitro inhibition assay (kinetic fluorescence)
Assay type: biochemical
Settings: read-out: TPH1 Range (TPH1 inhibition IC50)
From the text: Recombinant human TPH1 (rTPH1 GenBank™ accession no. NP_004179) was expressed by cloning full length human TPH1 cDNA in to a bacterial pMAL-c5E expression vector to produce maltose-binding protein (MBP) TPH1 fusion proteins. E. coli BL21 (DE3) containing pMAL-c5E-TPH1 was used for protein generation and the recombinant protein was purified utilizing standard column chromatography techniques. The MBP tagged TPH1 (MBP-TPH1) was used directly to screen compounds as described below. Recombinant human TPH2 (rTPH2 GenBank™ accession no. 173353), PheOH (rPheOH GenBank™ accession no. K03020) and TH (rTH GenBank™ accession no. L20679) with an MBP tag were produced similarly.
TPH1 activities were measured in an assay containing 200 mM ammonium sulfate, 7 mM DTT, 50 μg/mL catalase, 25 μM ammonium iron sulfate, 50 mM MES, pH 7.1. Test compounds were diluted in 100% DMSO and added to the assay plate in 1 μL aliquots at 100× final concentration. Fifty microliters of assay buffer containing 30 nM TPH1 enzyme (MBP tagged) were added to the plate wells containing the test compound by the use of an Eppendorf repeater pipette. The reaction was initiated by the addition of 50 μL of assay buffer containing 60 μM tryptophan and 72 μM 6-6-methyltetra-hydropterin (2× final concentration) by the use of a Multidrop (LabSystems). Final reaction conditions were 15 nM TPH1 enzyme, 30 μM tryptophan, 36 μM 6-methyltetra-hydropterin, 200 mM ammonium sulfate, 7 mM DTT, […], 25 μM ferrous ammonium sulfate, 50 mM MES, pH 7.1, with atmospheric oxygen at room temperature. The plate was immediately placed onto an M5 plate reader (Molecular Devices) for kinetic fluorescence measurement using an excitation setting of 300 nm and an emission setting of 335 nm. Fluorescence reads are recorded in kinetic mode for 300 seconds (5 minutes).
Kinetic assay data for compounds at specific concentrations was translated into slopes using the Softmax Pro software on a Spectramax reader, and compound inhibition slopes were compared with wells containing enzyme, substrate and cofactor in the absence of inhibitor (100%), and wells containing substrate and cofactor in the absence of enzyme (0%). DMSO concentration in the assay was 1%. […] IC50's were determined using Graphpad Prism.

Row | IC50 [nM] | Compound
1 | 50 to 300 | Cc1ccc(-c2cc(Cl)ccc2[C@@H](Oc2cc(N3CCC4(CC3)CN[C@H](C(=O)O)C4)nc(N)n2)C(F)(F)F)cc1F [Example 34bn, (S)-8-(2-amino-6-((R)-1-(5-chloro-3′-fluoro-4′-methyl-[1,1′-biphenyl]-2-yl)-2,2,2-trifluoroethoxy)pyrimidin-4-yl)-2,8-diazaspiro[4.5]decane-3-carboxylic acid]
2 | < 50 | Cc1ccn(-c2ccc(-c3ccc(CO)cc3)cc2[C@@H](Oc2cc(N3CCC4(CC3)CN[C@H](C(=O)O)C4)nc(N)n2)C(F)(F)F)n1 [Example 19r, (S)-8-(2-amino-6-((R)-2,2,2-trifluoro-1-(4′-(hydroxymethyl)-4-(3-methyl-1H-pyrazol-1-yl)-[1,1′-biphenyl]-3-yl)ethoxy)pyrimidin-4-yl)-2,8-diazaspiro[4.5]decane-3-carboxylic acid]
3 | 50 to 300 | COc1ccc(-c2ccc([C@@H](Oc3cc(N4CCC5(CC4)CN[C@H](C(=O)O)C5)nc(N)n3)C(F)(F)F)cc2)c(OC)c1 [Example 55cc, (S)-8-(2-amino-6-((R)-1-(2′,4′-dimethoxy-[1,1′-biphenyl]-4-yl)-2,2,2-trifluoroethoxy)pyrimidin-4-yl)-2,8-diazaspiro[4.5]decane-3-carboxylic acid]
4 | < 50 | Cc1ccn(-c2ccc(-c3ccc(Cl)cc3)cc2[C@@H](Oc2cc(N3CCC4(CC3)CN[C@H](C(=O)O)C4)nc(N)n2)C(F)(F)F)n1 [Example 19q, (S)-8-(2-amino-6-((R)-1-(4′-chloro-4-(3-methyl-1H-pyrazol-1-yl)-[1,1′-biphenyl]-3-yl)-2,2,2-trifluoroethoxy)pyrimidin-4-yl)-2,8-diazaspiro[4.5] decane-3-carboxylic acid]
5 | 50 to 300 | CS(=O)(=O)c1ccc([C@@H](Oc2cc(N3CCC4(CC3)CN[C@H](C(=O)O)C4)nc(N)n2)C(F)(F)F)c(-c2ccccc2)c1 [Example 54d, (S)-8-(2-amino-6-((R)-2,2,2-trifluoro-1-(5-(methylsulfonyl)-[1,1′-biphenyl]-2-yl)ethoxy)pyrimidin-4-yl)-2,8-diazaspiro[4.5]decane-3-carboxylic acid]
6 | < 50 | Cc1ccn(-c2cc(-c3ccc(OC(C)C)c(Cl)c3)ccc2[C@@H](Oc2cc(N3CCC4(CC3)CN[C@H](C(=O)O)C4)nc(N)n2)C(F)(F)F)n1 [Example 1bv, (S)-8-(2-amino-6-((R)-1-(3′-chloro-4′-isopropoxy-3-(3-methyl-1H-pyrazol-1-yl)-[1,1′-biphenyl]-4-yl)-2,2,2-trifluoroethoxy)pyrimidin-4-yl)-2,8-diazaspiro[4.5]decane-3-carboxylic acid]
7 | < 50 | Cc1cc(C)cc(-c2ccc([C@@H](Oc3cc(N4CCC5(CC4)CN[C@H](C(=O)O)C5)nc(N)n3)C(F)(F)F)c(-n3ccc(C)n3)c2)c1 [Example 1at, (S)-8-(2-amino-6-((R)-1-(3′,5′-dimethyl-3-(3-methyl-1H-pyrazol-1-yl)-[1,1′-biphenyl]-4-yl)-2,2,2-trifluoroethoxy)pyrimidin-4-yl)-2,8-diazaspiro[4.5]decane-3-carboxylic acid]
8 | 300 to 3000 | Nc1nc(O[C@H](c2cc(Br)ccc2Br)C(F)(F)F)cc(N2CCC3(CC2)CN[C@H](C(=O)O)C3)n1 [Example 48, (S)-8-(2-Amino-6-((R)-1-(2,5-dibromophenyl)-2,2,2-trifluoroethoxy)pyrimidin-4-yl)-2,8-diazaspiro[4.5]decane-3-carboxylic acid]

Row | Compound | IC50 [nM]
9 | (S)-8-(2-amino-6-((R)-2,2,2-trifluoro-1-(3′,4,5′- trifluoro-[1,1′-biphenyl]-4-yl)ethoxy)pyrimidin-4- yl)-2,8-diazaspiro[4.5]decane-3-carboxylic acid [Example 55co] | 50 to 300
10 | CCCCOc1ccc(-c2ccc([C@@H](Oc3cc(N4CCC5(CC4)CN[C@H](C(=O)O)C5)nc(N)n3)C(F)(F)F)c(-n3ccc(C)n3)c2)cc1F [Example 1ca, (S)-8-(2-amino-6-((R)-1-(4′-butoxy-3′-fluoro-3-(3-methyl-1H-pyrazol-1-yl)-[1,1′-biphenyl]-4-yl)-2,2,2-trifluoroethoxy)pyrimidin-4-yl)-2,8-diazaspiro[4.5]decane-3-carboxylic acid] | < 50
